# Like-named read-outs stand apart in the source and are kept apart here. *1 amine or outer side, *2 acyl side, *3 side chain or, on linkers, in order; H or OH if unused. Where a SMILES comes first, the peptide text is derived from it. Bridges are numbered along the chain shown (N, C = ends). [ ]: non-standard residue; d: D form. The star is where a group is joined. DOTA = O=C(O)CN1CCN(CC(=O)O)CCN(CC(=O)*)CCN(CC(=O)O)CC1; Pro(trans-4-F) = O=C(O)[C@@H]1C[C@@H](F)CN1; Hyp = O=C(O)[C@@H]1C[C@@H](O)CN1; Pentanoyl(4-Me) = CC(C)CCC(=O)*; Cit = NC(=O)NCCC[C@H](N)C(=O)O; Nva = CCC[C@H](N)C(=O)O; Pentanoyl = CCCCC(=O)*; CO = O=C([*:1])[*:2]; NHBu = CCCCN*
# Key:
# [1] = Plasma stability assay (human plasma); assay type: in vitro ADME; details: human plasma (sodium citrate 3.7%), 37°C, LC-MS quantification, read-out: % intact compound remaining after 6h incubation Human plasma
# Protocol: (§1) In order to determine the stability of selected compounds of the invention in human and mouse plasma, a plasma stability assay was carried out. Such plasma stability assay measures degradation of compounds of the present invention in blood plasma. This is an important characteristic of a compound as compounds, with the exception of pro-drugs, which rapidly degrade in plasma, generally show poor in vivo efficacy. […] The stability is sufficient for the diagnostic, therapeutic and theragnostic use of these compounds according to the present invention.
# (§2) The plasma stability samples were prepared by spiking 50 µl plasma aliquots (all sodium citrate 3.7%) with 1 µl of a 0.5 mM compound stock solution in DMSO. After vortexing the samples were incubated in a Thermomixer at 37°C for 0 and 6 hours. After incubation the samples were stored on ice until further treatment. All samples were prepared in duplicates.
# A suitable internal standard was added to each sample (1 µl of a 0.5 mM stock solution in DMSO). Protein precipitation was performed using two different methods depending on the compound conditions as indicated in Table 13. • A) 250 µl of acetonitrile containing 1% trifluoroacetic acid was added. […]
# (§3) Quantitation was performed by external matrix calibration with internal standard using the integrated analyte signals.
# (§4) Additionally, recovery was determined by spiking a pure plasma sample that only contained the internal standard after treatment with a certain amount of the compound.
# (§5) Carry-over was evaluated by analysis of a blank sample (20% acetonitrile) after the highest calibration sample.
# The result is stated as "% intact compound remaining after 6 h incubation" and means that from the amount of material at the start of the experiment the stated percentage is detected as unchanged material at the end of the experiment by LC-MS quantification. […]
# human uPAR (uPAR-Fc) = biological target: T1, human uPAR (uPAR-Fc) (Homo sapiens, UniProt Q03405); experiment: Surface plasmon resonance (SPR) assay, single cycle kinetics; assay type: binding; details: pKD category for uPAR SPR activity assay, uPAR-Fc on Protein A-Chip, 25°C, read-out: pKD CAT (converted)
# T1 construct: comprising amino acids Leu23-Arg303 according to UniProt entry Q03405.1; purchased R&D Systems 10378-UK-100
# T1 sequence (Q03405 23-303): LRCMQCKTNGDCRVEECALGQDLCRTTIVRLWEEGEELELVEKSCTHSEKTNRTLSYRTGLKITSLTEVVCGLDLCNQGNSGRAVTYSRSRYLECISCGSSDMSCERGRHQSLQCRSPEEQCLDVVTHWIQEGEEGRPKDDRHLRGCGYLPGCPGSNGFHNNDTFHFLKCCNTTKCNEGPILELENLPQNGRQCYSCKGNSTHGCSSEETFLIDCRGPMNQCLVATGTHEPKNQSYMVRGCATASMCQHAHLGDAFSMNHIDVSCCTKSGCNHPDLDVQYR
# Outline: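 uPAR-Fc (Leu23-Arg303 extracellular domains, human IgG1 Fc) captured on Protein A chip to ~2000 RU; single-cycle kinetics at 25°C in HEPES running buffer pH 7.4 with 0.1% DMSO. KD from double-referenced sensorgrams fitted to 1:1 Langmuir model, reported as pKD.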
# [2] = biological target: T2, uPAR-expressing HEC-265 human endometrial adenocarcinoma cells (Homo sapiens, UniProt Q03405); experiment: Competitive FACS binding assay; details: pIC50 category of FACS binding
# T2 construct: Cell surface uPAR-expressing HEC-265 human endometrial adenocarcinoma cells; host or cells: HEC-265
# T2 sequence (Q03405 23-335): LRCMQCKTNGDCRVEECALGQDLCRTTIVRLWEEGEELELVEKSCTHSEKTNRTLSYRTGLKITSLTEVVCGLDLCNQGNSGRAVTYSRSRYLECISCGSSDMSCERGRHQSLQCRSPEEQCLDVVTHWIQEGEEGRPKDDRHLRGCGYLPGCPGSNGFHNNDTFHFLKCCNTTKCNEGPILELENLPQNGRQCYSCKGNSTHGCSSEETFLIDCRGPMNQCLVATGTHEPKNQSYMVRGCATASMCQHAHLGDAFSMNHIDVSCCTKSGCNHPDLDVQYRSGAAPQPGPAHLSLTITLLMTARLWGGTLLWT
# Outline: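 Competitive displacement of a 10 nM biotinylated peptide from HEC-265 cells (1 h, 4 °C, PBS/1% BSA), detected via APC-streptavidin by flow cytometry. pIC50 from four-parameter logistic fit of median fluorescence versus concentration.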
# [3] = Plasma stability assay (mouse plasma); assay type: in vitro ADME; details: mouse plasma (sodium citrate 3.7%), 37°C, LC-MS quantification, read-out: % intact compound remaining after 6h incubation Mouse plasma
# Protocol: as §1, §2
# A suitable internal standard was added to each sample (1 µl of a 0.5 mM stock solution in DMSO). Protein precipitation was performed using two different methods depending on the compound conditions as indicated in Table 13. • A) 250 µl of acetonitrile containing 1% trifluoroacetic acid was added. After incubation at room temperature for 30 min the precipitate was separated by centrifugation and 150 µl of the supernatant was diluted with 150 µl of 1% aqueous formic acid. • B) 150 µl of a zinc sulphate precipitation agent containing 78% 0.1 M zinc sulphate and 22% acetonitrile was added. After incubation at room temperature for 30 min the precipitate was separated by centrifugation. To 100 µl of the supernatant 10 µl of 1% formic acid was added followed by further incubation at 60°C for 10 min to complete the formation of the zinc chelate, if the compound contains a free DOTA moiety.
# The determination of the analyte in the clean sample solutions was performed on an Agilent 1290 UHPLC system coupled to an Agilent 6530 Q-TOF mass spectrometer. The chromatographic separation was carried out on a Phenomenex BioZen XB-C18 HPLC column (50 x 2 mm, 1.7 µm particle size).
# Two different elution gradients were applied using a mixture of 0.1% formic acid in water as eluent A and acetonitrile as eluent B: • A) 2% B to 41% in 7 min, 800 µl/min, 40°C. • B) 5% B to 50% B in 6 min, 800 µL/min, 40°C.
# Mass spectrometric detection was performed in positive ion ESI mode by scanning the mass range from m/z 50 to 3000 with a sampling rate of 2 / sec.
# (§6) From the mass spectrometric raw data the ion currents for the double or triple charged monoisotopic signal was extracted for both, the compound and the internal standard.
# as §3, §4, §5
# (§7) The result is stated as "% intact compound remaining after 6 h incubation" and means that from the amount of material at the start of the experiment the stated percentage is detected as unchanged material at the end of the experiment by LC-MS quantification. Since all compounds are more than 50% intact after 6 h they are considered as stable enough for diagnostic and therapeutic applications. Table 13: Results of the plasma stability assay
# [4] = biological target: T3, Recombinant soluble human NEP (Homo sapiens, UniProt P08473); experiment: Proteolytic stability assay against NEP; assay type: in vitro ADME; details: recombinant soluble human NEP, human NEP 100 ng/mL, compound 10 µM, 37°C, LC-MS quantification, read-out: % intact compound remaining after 24h incubation
# T3 construct: Recombinant soluble human NEP; purchased BioTechne, Wiesbaden, Germany
# T3 sequence (P08473 52-750 limits assumed): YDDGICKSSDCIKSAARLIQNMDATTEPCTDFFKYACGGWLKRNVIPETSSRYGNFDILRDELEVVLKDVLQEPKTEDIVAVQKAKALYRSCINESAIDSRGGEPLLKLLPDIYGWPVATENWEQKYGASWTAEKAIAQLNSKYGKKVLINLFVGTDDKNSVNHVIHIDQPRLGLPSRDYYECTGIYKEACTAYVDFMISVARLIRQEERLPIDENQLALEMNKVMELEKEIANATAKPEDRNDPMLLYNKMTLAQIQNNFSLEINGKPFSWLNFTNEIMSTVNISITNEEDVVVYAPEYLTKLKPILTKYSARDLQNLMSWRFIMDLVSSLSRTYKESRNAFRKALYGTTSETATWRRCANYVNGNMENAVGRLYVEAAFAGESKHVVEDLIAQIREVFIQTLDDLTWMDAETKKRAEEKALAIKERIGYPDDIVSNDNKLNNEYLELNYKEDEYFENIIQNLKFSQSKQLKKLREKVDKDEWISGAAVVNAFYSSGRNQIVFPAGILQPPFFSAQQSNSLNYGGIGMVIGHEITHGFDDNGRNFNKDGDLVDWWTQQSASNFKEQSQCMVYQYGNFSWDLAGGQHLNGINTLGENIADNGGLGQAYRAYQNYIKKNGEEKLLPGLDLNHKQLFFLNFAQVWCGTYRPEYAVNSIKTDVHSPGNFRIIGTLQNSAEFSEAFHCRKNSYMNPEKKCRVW
# Protocol: To assess the stability of compounds against NEP, the compounds were subjected to an in vitro assay based on the protocol described by Edelson et al. (Edelson, Makhlina et al. 2013).
# Recombinant soluble human NEP (BioTechne, Wiesbaden, Germany) at a concentration of 100 ng/mL was mixed with the compound (10 µM) and a stable internal standard (10 µM) and incubated at 37°C. After several time points, samples were taken and analyzed with LC-MS.
# The determination of the analyte in the clean sample solutions was performed on an Agilent 1290 UHPLC system coupled to an Agilent 6530 Q-TOF mass spectrometer. The chromatographic separation was carried out on a Phenomenex BioZen XB-C18 HPLC column (50 × 2 mm, 1.7 µm particle size) with gradient elution using a mixture of 0.1% formic acid in water as eluent A and acetonitrile as eluent B (2% B to 41% in 7 min, 800 µl/min, 40°C). Mass spectrometric detection was performed in positive ion ESI mode by scanning the mass range from m/z 50 to 3000 with a sampling rate of 2 / sec.
# as §6, §3
# The activity of NEP was examined using a commercially available chromogenic substrate of NEP.
# as §7, with “24” for “6”, “14:” for “13:”, “NEP” for “plasma”
Structure (SMILES),"remaining at 6 h, 9.8 µM [1]",Kd (human uPAR (uPAR-Fc)),IC50 [2],"remaining at 6 h, 9.8 µM [3]","remaining at 24 h, 10 µM [4]",Kd (human uPAR (uPAR-Fc); single cycle kinetics)
"CCCCC(=O)N[C@H]1CSSC[C@@H](C(N)=O)NC(=O)[C@H](CCC)NC(=O)[C@H]([C@@H](C)CC)NC(=O)[C@@H]2C[C@@H](O)CN2C(=O)[C@@H]2CCCN2C(=O)[C@H](Cc2ccccc2)NC(=O)[C@H](Cc2ccc(O)cc2)NC(=O)[C@H](CCCCNC(=O)CN2CCN(CC(=O)O)CCN(CC(=O)O)CCN(CC(=O)O)CC2)NC(=O)[C@H]([C@@H](C)O)NC1=O [UPAR-301, Pent-[Cys-Thr-Lys(DOTA)-Tyr-Phe-Pro-Hyp-Ile-Nva-Cys]-NH2] (Pentanoyl-CTK(DOTA)YFP[Hyp]I[Nva]C-NH2; disulfide 1-10)",> 95%,< 1.58 nM,≤ 10 nM,91%,–,–
"CCCCC(=O)N[C@H]1CSSC[C@@H](C(N)=O)NC(=O)[C@H](CCC)NC(=O)[C@H]([C@@H](C)CC)NC(=O)[C@@H]2C[C@@H](F)CN2C(=O)[C@@H]2CCCN2C(=O)[C@H](Cc2ccccc2)NC(=O)[C@H](Cc2ccc(O)cc2)NC(=O)[C@H](CCCCNC(=O)CN2CCN(CC(=O)O)CCN(CC(=O)O)CCN(CC(=O)O)CC2)NC(=O)[C@H](CCCNC(N)=O)NC1=O [UPAR-246, Pent-[Cys-Cit-Lys(DOTA)-Tyr-Phe-Pro-4Tfp-Ile-Nva-Cys]-NH2] (Pentanoyl-C[Cit]K(DOTA)YFP[Pro(trans-4-F)]I[Nva]C-NH2; disulfide 1-10)",–,< 1.58 nM,≤ 10 nM,–,89%,–
"CC[C@H](C)[C@@H]1NC(=O)[C@@H]2CCCN2C(=O)[C@@H]2CCCN2C(=O)[C@H](Cc2ccccc2)NC(=O)[C@H](Cc2ccc(O)cc2)NC(=O)[C@H](CCC(N)=O)NC(=O)[C@H](CCCCNC(=O)CN2CCN(CC(=O)O)CCN(CC(=O)O)CCN(CC(=O)O)CC2)NC(=O)[C@@H](NC(=O)CCC(C)C)CSSC[C@@H](C(N)=O)NC(=O)[C@H](CC(C)C)NC1=O [UPAR-466, iHex-[Cys-Lys(DOTA)-Gln-Tyr-Phe-Pro-Pro-Ile-Leu-Cys]-NH2] ({Pentanoyl(4-Me)}-CK(DOTA)QYFPPILC-NH2; disulfide 1-10)",–,–,≤ 10 nM,–,> 95%,< 1.58 nM
"CCCCNC(=O)N[C@H]1CSSC[C@@H](C(N)=O)NC(=O)[C@H](CCC)NC(=O)[C@H]([C@@H](C)CC)NC(=O)[C@@H]2C[C@@H](O)CN2C(=O)[C@@H]2CCCN2C(=O)[C@H](Cc2ccccc2)NC(=O)[C@H](Cc2ccc(O)cc2)NC(=O)[C@H](CCCCNC(=O)CN2CCN(CC(=O)O)CCN(CC(=O)O)CCN(CC(=O)O)CC2)NC(=O)[C@H](CCCNC(N)=O)NC1=O [UPAR-346, nBu-CAyl-[Cys-Cit-Lys(DOTA)-Tyr-Phe-Pro-Hyp-Ile-Nva-Cys]-NH2] ({NHBu-CO}-C[Cit]K(DOTA)YFP[Hyp]I[Nva]C-NH2; disulfide 1-10)",–,–,≤ 10 nM,–,89%,< 1.58 nM

# Source: patent publication EP4610269A1, “UROKINASE PLASMINOGEN ACTIVATOR SURFACE RECEPTOR (UPAR) LIGANDS FOR DIAGNOSTIC OR THERAPEUTIC USE” (3B Pharmaceuticals GmbH, priority 2024, dated 2025)
